From ChEMBL document CHEMBL6120990, “A Putative Frizzled 7-Targeting Compound Acts as a Firefly Luciferase Inhibitor” (J Med Chem, 2024)
Active and inactive are the calls of the source. The calls are words filed in the database; no cut-off is given here.

Experiments:
MEF = experiment: Effect on WNT-3A induced Axin2 mRNA expression in mouse MEF cells at 10 uM stimulated with WNT-3A prior to compound addition and measured after 24 hrs by qPCR analysis; format: functional, cell-based
[1] = Inhibition of Wnt/beta-catenin signalling in deltaFZD1-10 HEK293 cells transfected with HiBit-FZD7 assessed as inhibition of CHIR99021-induced TOPFlash ratio incubated for 24 hrs by dual luciferase reporter assay; format: cell-based; conditions: Homo sapiens, HEK293, 24 h
HEK293 [2] = experiment: Inhibition of Wnt/beta-catenin signalling in deltaFZD1-10 HEK293 cells transfected with HiBit-FZD7 assessed as reduction in Wnt3a induced topflash signal at 10 uM pre-stimulated with Wnt3a followed by compound addition and measured after 24 hrs by dual luciferase reporter assay; format: cell-based; conditions: Homo sapiens
HEK293 [3] = experiment: Inhibition of Wnt/beta-catenin signalling in deltaFZD1-10 HEK293 cells transfected with FZD7-DEP-Clamp assessed as effect on WNT-3A induced FZD7-DEP-Clamp signal using furimazine as substrate at 10 uM preincubated for 10 mins followed by WNT-3A stimulation and measured every 2 mins for 1 hr by luminescence based analysis; format: cell-based; conditions: Homo sapiens, time 70.0 min
HEK293 [4] = experiment: Inhibition of Wnt/beta-catenin signalling in deltaFZD1-10 HEK293 cells transfected with HiBit-FZD7 assessed as reduction in topflash signal at 10 uM incubated for 24 hrs by dual luciferase reporter assay; format: cell-based; conditions: Homo sapiens
HEK293 [5] = experiment: Effect on Nano-luciferase activity in deltaFZD1-10 HEK293 cells at 0.1 to 1000 nM incubated for 24 hrs under TK promoter by luminescence based analysis; format: functional, cell-based; conditions: Homo sapiens, dose 0.1-1000 nM
[6] = Inhibition of firefly luciferase expression in deltaFZD1-10 HEK293 cells incubated for 24 hrs by microplate reader analysis; format: functional, cell-based; conditions: Homo sapiens, HEK293, 24 h
HEK293 [7] = experiment: Effect on renilla luciferase level deltaFZD1-10 HEK293 cells assessed as reduction in Rluc-bioluminescence at 0.1 to 1000 nM incubated for 24 hrs by luminescence based analysis; format: functional, cell-based; conditions: Homo sapiens, dose 0.1-1000 nM
HEK293 [8] = experiment: Inhibition of firefly luciferase expression in deltaFZD1-10 HEK293 cells assessed as reduction in bioluminescence incubated for 24 hrs by microplate reader analysis; format: functional, cell-based; conditions: Homo sapiens, dose 0.1-1000 nM

Cc1ccc(C(=O)Nc2ccc(SCC(=O)Nc3nc(-c4ccccc4)cs3)cc2)c(C)c1
Activity (MEF): inactive
IC50 ([1]; read-out: IC50): 33 nM
IC50 ([1]; read-out: pIC50 (converted)): 33.9 nM
inhibition (HEK293 [2]): Active
inhibition (HEK293 [3]): inactive
inhibition (HEK293 [4]): Active
Activity (HEK293 [5]): inactive
IC50 [6]: 23.7 nM
Activity (HEK293 [7]): inactive
inhibition (HEK293 [8]): Dose-dependent-effect
